From PubChem BioAssay (NCI)
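Step 1: Grow cells in 96-well plates. Step 2: Expose to compound for 48 hours at 5 concentrations. Step 3: Interpolate endpoints linearly; if unreached, use highest concentration. Abbreviation: GI50, concentration required for 50% inhibition of growth. At the TGI there is no net growth.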

Columns and labels:
Assay in all cases: inhibition of tumour cell growth, NCI panel, 48 h
SR leukemia = system: SR leukemia
MOLT-4 leukemia = system: MOLT-4 leukemia
HOP-62 NSCLC = system: HOP-62 NSCLC
MALME-3M melanoma = system: MALME-3M melanoma
786-0 renal = system: 786-0 renal
RXF 393 renal = system: RXF 393 renal
SW-620 colon = system: SW-620 colon
NCI/ADR-RES ovarian = system: NCI/ADR-RES ovarian
SK-MEL-2 melanoma = system: SK-MEL-2 melanoma
U251 CNS = system: U251 CNS
ACHN renal = system: ACHN renal
RPMI-8226 leukemia = system: RPMI-8226 leukemia
OVCAR-4 ovarian = system: OVCAR-4 ovarian
MDA-MB-435 = system: MDA-MB-435
SF-268 CNS = system: SF-268 CNS
MCF7 breast = system: MCF7 breast
COLO 205 colon = system: COLO 205 colon
NCI-H460 lung = system: NCI-H460 lung
A549 NSCLC = system: A549 NSCLC
NCI-H23 lung = system: NCI-H23 lung
SK-MEL-5 melanoma = system: SK-MEL-5 melanoma
CCRF-CEM leukemia = system: CCRF-CEM leukemia
K-562 leukemia = system: K-562 leukemia
SNB-75 CNS = system: SNB-75 CNS
T-47D breast = system: T-47D breast
CAKI-1 renal = system: CAKI-1 renal
SK-MEL-28 melanoma = system: SK-MEL-28 melanoma
HL-60(TB) leukemia = system: HL-60(TB) leukemia
M14 melanoma = system: M14 melanoma
OVCAR-5 ovarian = system: OVCAR-5 ovarian
IGROV1 ovarian = system: IGROV1 ovarian
UACC-62 melanoma = system: UACC-62 melanoma
SK-OV-3 ovarian = system: SK-OV-3 ovarian
SNB-19 CNS = system: SNB-19 CNS
UO-31 renal = system: UO-31 renal
KM12 colon = system: KM12 colon
SF-295 CNS = system: SF-295 CNS
DU-145 prostate = system: DU-145 prostate
SF-539 CNS = system: SF-539 CNS
EKVX NSCLC = system: EKVX NSCLC
HCT-116 colon = system: HCT-116 colon
HT29 colon = system: HT29 colon
HCT-15 colon = system: HCT-15 colon
SN12C renal = system: SN12C renal
TK-10 renal = system: TK-10 renal
OVCAR-3 ovarian = system: OVCAR-3 ovarian
PC-3 prostate = system: PC-3 prostate
MDA-MB-231 breast = system: MDA-MB-231 breast
UACC-257 melanoma = system: UACC-257 melanoma
OVCAR-8 ovarian = system: OVCAR-8 ovarian
HOP-92 NSCLC = system: HOP-92 NSCLC
HCC-2998 colon = system: HCC-2998 colon
NCI-H522 lung = system: NCI-H522 lung
A498 renal = system: A498 renal
HS 578T breast = system: HS 578T breast
NCI-H226 lung = system: NCI-H226 lung
BT-549 breast = system: BT-549 breast
LOX IMVI melanoma = system: LOX IMVI melanoma

COc1ccc(-c2coc3cc(O)cc(O)c3c2=O)cc1
TGI (SR leukemia): > 10 µM | TGI (MOLT-4 leukemia): > 10 µM | TGI (HOP-62 NSCLC): > 10 µM | TGI (MALME-3M melanoma): > 10 µM | TGI (786-0 renal): > 10 µM | TGI (RXF 393 renal): > 10 µM | TGI (SW-620 colon): > 10 µM | TGI (NCI/ADR-RES ovarian): > 10 µM | TGI (SK-MEL-2 melanoma): > 10 µM | TGI (U251 CNS): > 10 µM | TGI (ACHN renal): > 10 µM | TGI (RPMI-8226 leukemia): > 10 µM | TGI (OVCAR-4 ovarian): > 10 µM | TGI (MDA-MB-435): > 10 µM | TGI (SF-268 CNS): > 10 µM | TGI (MCF7 breast): > 10 µM | TGI (COLO 205 colon): > 10 µM | TGI (NCI-H460 lung): > 10 µM | TGI (A549 NSCLC): > 10 µM | TGI (NCI-H23 lung): > 10 µM | TGI (SK-MEL-5 melanoma): > 10 µM | TGI (CCRF-CEM leukemia): > 10 µM | TGI (K-562 leukemia): > 10 µM | TGI (SNB-75 CNS): > 10 µM | TGI (T-47D breast): > 10 µM | TGI (CAKI-1 renal): > 10 µM | TGI (SK-MEL-28 melanoma): > 10 µM | TGI (HL-60(TB) leukemia): > 10 µM | TGI (M14 melanoma): > 10 µM | TGI (OVCAR-5 ovarian): > 10 µM | TGI (IGROV1 ovarian): > 10 µM | TGI (UACC-62 melanoma): > 10 µM | TGI (SK-OV-3 ovarian): > 10 µM

Oc1c(Cl)c(Cl)c(O)c(CCNc2nccs2)c1Cl
TGI (SNB-19 CNS): 44.1 µM | TGI (UO-31 renal): 32.9 µM | TGI (SR leukemia): 25.6 µM | TGI (MOLT-4 leukemia): 94.3 µM | TGI (KM12 colon): 35.8 µM | TGI (HOP-62 NSCLC): 40.7 µM | TGI (SF-295 CNS): 41.5 µM | TGI (DU-145 prostate): 19.8 µM | TGI (MALME-3M melanoma): 54.9 µM | TGI (SF-539 CNS): 4.14 µM | TGI (786-0 renal): 33.5 µM | TGI (RXF 393 renal): 20.3 µM | TGI (EKVX NSCLC): 41.1 µM | TGI (SW-620 colon): 7.72 µM | TGI (HCT-116 colon): 23.6 µM | TGI (HT29 colon): 51.8 µM | TGI (HCT-15 colon): 31 µM | TGI (NCI/ADR-RES ovarian): 50.5 µM | TGI (SK-MEL-2 melanoma): 48.4 µM | TGI (U251 CNS): 66.1 µM | TGI (ACHN renal): 23.4 µM | TGI (SN12C renal): 49.2 µM | TGI (OVCAR-4 ovarian): > 100 µM | TGI (MDA-MB-435): 41.8 µM | TGI (TK-10 renal): 33 µM | TGI (SF-268 CNS): 36.1 µM | TGI (MCF7 breast): 10.2 µM | TGI (COLO 205 colon): 57.9 µM | TGI (NCI-H460 lung): 41.1 µM | TGI (A549 NSCLC): 49.8 µM | TGI (OVCAR-3 ovarian): 33.3 µM | TGI (NCI-H23 lung): 37.9 µM | TGI (PC-3 prostate): 45.1 µM | TGI (SK-MEL-5 melanoma): 8.71 µM | TGI (CCRF-CEM leukemia): > 100 µM | TGI (K-562 leukemia): > 100 µM | TGI (SNB-75 CNS): 42.3 µM | TGI (T-47D breast): 34.8 µM | TGI (MDA-MB-231 breast): 2.16 µM | TGI (CAKI-1 renal): 29.3 µM | TGI (SK-MEL-28 melanoma): 67.9 µM | TGI (HL-60(TB) leukemia): > 100 µM | TGI (UACC-257 melanoma): 58.7 µM | TGI (OVCAR-8 ovarian): 47.2 µM | TGI (M14 melanoma): 36 µM | TGI (OVCAR-5 ovarian): 39 µM | TGI (IGROV1 ovarian): 17.9 µM | TGI (HOP-92 NSCLC): > 100 µM | TGI (UACC-62 melanoma): 40.5 µM | TGI (HCC-2998 colon): 30.3 µM | TGI (SK-OV-3 ovarian): 30.3 µM

O=C(NS(=O)(=O)c1ccc(NC[C@H]2COCCO2)c([N+](=O)[O-])c1)c1ccc(N2CCN(CC3=C(c4ccc(Cl)cc4)CC4(CCC4)CC3)CC2)cc1Oc1cnc2[nH]ccc2c1
GI50 (SNB-19 CNS): 2.39 µM | TGI (SNB-19 CNS): 7.28 µM | GI50 (UO-31 renal): 1.69 µM | TGI (UO-31 renal): 3.52 µM | GI50 (SR leukemia): 1.82 µM | TGI (SR leukemia): 5.31 µM | GI50 (MOLT-4 leukemia): 1.36 µM | TGI (MOLT-4 leukemia): 5.22 µM | GI50 (KM12 colon): 2.21 µM | TGI (KM12 colon): 5.11 µM | GI50 (HOP-62 NSCLC): 1.79 µM | TGI (HOP-62 NSCLC): 3.71 µM | GI50 (SF-295 CNS): 1.66 µM | TGI (SF-295 CNS): 4.08 µM | GI50 (NCI-H522 lung): 1.93 µM | TGI (NCI-H522 lung): 4.62 µM | GI50 (DU-145 prostate): 3.57 µM | TGI (DU-145 prostate): 70.6 µM | GI50 (MALME-3M melanoma): 1.69 µM | TGI (MALME-3M melanoma): 3.2 µM | GI50 (SF-539 CNS): 1.88 µM | TGI (SF-539 CNS): 4.03 µM | GI50 (A498 renal): 2.36 µM | TGI (A498 renal): 5.74 µM | GI50 (786-0 renal): 2.47 µM | TGI (786-0 renal): 5.69 µM | GI50 (RXF 393 renal): 1.32 µM | TGI (RXF 393 renal): 2.76 µM | GI50 (EKVX NSCLC): 2.87 µM | TGI (EKVX NSCLC): 9.12 µM | GI50 (SW-620 colon): 2.47 µM | TGI (SW-620 colon): 6.6 µM | GI50 (HCT-116 colon): 2.69 µM | TGI (HCT-116 colon): 12.5 µM | GI50 (HT29 colon): 2.58 µM | TGI (HT29 colon): 8.14 µM | GI50 (HCT-15 colon): 1.94 µM | TGI (HCT-15 colon): 4.62 µM | GI50 (NCI/ADR-RES ovarian): 4.88 µM | TGI (NCI/ADR-RES ovarian): 24.9 µM | GI50 (HS 578T breast): 2.12 µM | TGI (HS 578T breast): 5.76 µM | GI50 (NCI-H226 lung): 1.88 µM | TGI (NCI-H226 lung): 3.93 µM | GI50 (SK-MEL-2 melanoma): 1.77 µM | TGI (SK-MEL-2 melanoma): 3.4 µM | GI50 (U251 CNS): 2.19 µM | TGI (U251 CNS): 5.38 µM | GI50 (ACHN renal): 2.23 µM | TGI (ACHN renal): 5.8 µM | GI50 (SN12C renal): 1.91 µM | TGI (SN12C renal): 3.72 µM | GI50 (OVCAR-4 ovarian): 2.47 µM | TGI (OVCAR-4 ovarian): 9.81 µM | GI50 (TK-10 renal): 2.29 µM | TGI (TK-10 renal): 7.27 µM | GI50 (SF-268 CNS): 2.97 µM | TGI (SF-268 CNS): 17.9 µM | GI50 (BT-549 breast): 2.42 µM | TGI (BT-549 breast): 5.39 µM | GI50 (MCF7 breast): 2.29 µM | TGI (MCF7 breast): 10.4 µM | GI50 (COLO 205 colon): 1.85 µM | TGI (COLO 205 colon): 3.4 µM | GI50 (NCI-H460 lung): 2.15 µM | TGI (NCI-H460 lung): 6.12 µM | GI50 (A549 NSCLC): 3.08 µM | TGI (A549 NSCLC): 14.2 µM | GI50 (OVCAR-3 ovarian): 1.82 µM | TGI (OVCAR-3 ovarian): 3.7 µM | GI50 (NCI-H23 lung): 2.77 µM | TGI (NCI-H23 lung): 8.6 µM | GI50 (PC-3 prostate): 2.43 µM | TGI (PC-3 prostate): 13.5 µM | GI50 (SK-MEL-5 melanoma): 1.6 µM | TGI (SK-MEL-5 melanoma): 2.97 µM | GI50 (CCRF-CEM leukemia): 2.69 µM | TGI (CCRF-CEM leukemia): > 100 µM | GI50 (K-562 leukemia): 3.04 µM | TGI (K-562 leukemia): > 100 µM | GI50 (SNB-75 CNS): 1.76 µM | TGI (SNB-75 CNS): 6.31 µM | GI50 (T-47D breast): 2.24 µM | TGI (T-47D breast): 8.99 µM | GI50 (LOX IMVI melanoma): 1.85 µM | TGI (LOX IMVI melanoma): 3.63 µM | GI50 (MDA-MB-231 breast): 1.62 µM | TGI (MDA-MB-231 breast): 3.21 µM | GI50 (CAKI-1 renal): 1.8 µM | TGI (CAKI-1 renal): 5.11 µM | GI50 (SK-MEL-28 melanoma): 1.58 µM | TGI (SK-MEL-28 melanoma): 3.39 µM | GI50 (HL-60(TB) leukemia): 1.6 µM | TGI (HL-60(TB) leukemia): 4.83 µM | GI50 (UACC-257 melanoma): 2.07 µM | TGI (UACC-257 melanoma): 4.57 µM | GI50 (OVCAR-8 ovarian): 2.18 µM | TGI (OVCAR-8 ovarian): 5.06 µM | GI50 (M14 melanoma): 2.11 µM | TGI (M14 melanoma): 4.99 µM | GI50 (OVCAR-5 ovarian): 1.73 µM | TGI (OVCAR-5 ovarian): 4.03 µM | GI50 (IGROV1 ovarian): 1.93 µM | TGI (IGROV1 ovarian): 3.91 µM | GI50 (HOP-92 NSCLC): 1.43 µM | TGI (HOP-92 NSCLC): 3.05 µM | GI50 (UACC-62 melanoma): 1.51 µM | TGI (UACC-62 melanoma): 3 µM | GI50 (HCC-2998 colon): 1.78 µM | TGI (HCC-2998 colon): 3.23 µM | GI50 (SK-OV-3 ovarian): 1.95 µM | TGI (SK-OV-3 ovarian): 4.57 µM
